Reference: patent US20180140578A1, “METHODS AND COMPOSITIONS FOR THE DIAGNOSIS AND SELECTIVE TREATMENT OF CANCER” (Board of Regents of the University of Texas System, priority 2016, published 2018)
“Also recorded” adds a separate entry of the source. Read-outs that look alike come from different tables or passages of the source.

Assays:
[1] = test system: RBM39 with indisulam-resistant mutations; assay: RBM39 degradation in resistant cells (western blotting); format: cell-based, human; details: resistant cells harboring indisulam-resistant mutations
Procedure: Proteins were resolved on SDS-PAGE and transferred to 0.5 μm nitrocellulose membranes. Membranes were blocked in 5% milk TBST for 30 min, and then anti-RBM39 antibodies (HPA001591, Sigma-Aldrich) were added in 5% milk (1:5000) and incubated on a shaker overnight at 4° C. After three 5 min washes with TBST, membranes were incubated with HRP-conjugated goat anti-rabbit secondary antibody (Bio-Rad) for 2 hr at room temperature. After three 5 min washes with TBST, membranes were developed with ECL (enhanced chemiluminescence) substrates.

[2] = target: T1, RBM39-3xFLAG G268V with CUL4-DCAF15 complex (Homo sapiens, UniProt Q14498+Q66K64, G268V); assay: In vitro formation of complex in lysates, G268V; format: binding; details: in the presence of 10 μM of indisulam
T1 construct: lysate derived from parental cells, RBM39-3xFLAG cells, or RBM39 G268V-3xFLAG cells; endogenous in cells; host or cells: HCT-116 RBM39 G268V-3xFLAG cells (treated cells in A91; lysates in A95)
Procedure: First, we reconstituted formation of the RBM39-CUL4-DCAF15 complex in vitro (FIG. 4, panel A).
Anti-Flag M2 antibody (Sigma-Aldrich) was coupled to Dynabeads M-270 epoxy beads (Life Technologies) at the ratio of 10 μg of antibody/mg beads. […] Frozen cells were then pulverized in the a cryomill (Retsch) with one 25 mm steel ball and five cycles of three min at 25 Hz with intermittent cooling in liquid nitrogen. […] The lysates were centrifuged at 8000 g for 5 min at 4° C. 12 mg of conjugated Anti-Flag magnetic beads were mixed with clarified lysates for 5 min at 4° C. on a rotating platform, followed by three washes with IP buffer. Bound proteins were eluted with 1 mg/ml 3xFLAG peptide, followed by SDS-PAGE on a 10% Bis Tris gel. After brief electrophoresis, bands containing all the proteins were cut with clean blades. For western blotting of co-immunoprecipitated proteins, anti-DDA1 (ProteinTech, 14995-1-AP, 1:1000), anti-DDB1 (Abcam, ab109027, 1;10000), anti-CUL4A (Cell Signaling, 2699, 1:1000), anti-CUL4B (ProteinTech, 12916-1-AP, 1:1000) were used.

[3] = test system: tumors derived from HCT-116 cells expressing RBM39 G268V; assay: Mouse xenograft model, HCT-116 RBM39 G268V; format: in vivo, Nod-Scid IL-2Rγ KO mice
Procedure: All animal work was approved by the Institutional Animal Care and Use Committee at UTSW. UTSW is accredited by the Association for Assessment and Accreditation of Laboratory Animal Care International (AAALAC). Animals were obtained from the UTSW Breeding Core Facility. Nod-Scid IL-2Rγ KO mice were implanted with 5 million parental HCT-116 cells or HCT-116 cells expressing RBM39 G268V in a volume of 0.1 ml in the left flank. Tumor volumes were measured every 2-4 days with calipers. Volume is calculated as (L*W^2)*3.14)/6.

[4] = test system: Calu-6; assay: IC50 assay, NSCLC cell lines (Cell Titer Glo, total ATP); format: cell-based; details: Homo sapiens
Procedure: Cells were plated at ˜15% confluence in a media comprising 5% concentration of fetal bovine serum supplemented with RPMI, which included 2 mM L-Glutamine in a 96 well dish. […] Following three days of incubation in a 5% CO2 incubator, the total ATP in each well was quantified using Cell Titer Glo (Promega). […] The solid lines represent the medians.

[5] = test system: DCAF15-3xFLAG and mutant RBM39Δ150 (M265L, E271Q, P272S); assay: RBM39Δ150 pulldown assay, mutant RBM39; format: binding, human; details: at concentrations as high as 10 μM
Procedure: RBM39 lacking the first 150 amino acids after the start codon (RBM39Δ150) was cloned into the pFastBac1 (Life Technologies) vector. Site-directed Mutagenesis of RBM39 was performed using Q5 site-directed mutagenesis kit (NEB). DCAF15-GST (C-terminal GST tag) and DDB1 were also cloned into pFastBac1. The production of baculovirus was carried out following vendor's instructions. Protein was expressed in SF9 cells by infection with each protein specific baculovirus, and cells were harvested 48 hr later and frozen in liquid nitrogen. For purification of RBM39Δ150, frozen cells were pulverized by cryomill and resuspended in lysis buffer (40 mM Tris, pH 7.5, 225 mM NaCl, 1× […] Protease inhibitor). The lysate was passed through a 22 gauge needle 2 times followed by ultracentrifugation at 25000 rpm for 30 min. Clarified lysate was incubated with Ni-NTA agarose (Qiagen) for 30 min with rotation at 4° C. Resin and bound protein were washed with wash buffer 1 (40 mM Tris, pH 7.5, 225 mM NaCl) followed by wash buffer 2 (40 mM Tris, pH 7.5, 20 mM imidazole, 225 mM NaCl). Proteins were eluted with elution buffer (40 mM Tris, pH 7.5, 300 mM imidazole, 225 mM NaCl) and concentrated to 0.5 ml. Concentrated proteins were then fractionated on Superdex 200 Increase 10/300 GL (GE Healthcare). […]

Q: What does the source list for NS(=O)(=O)c1ccc(S(=O)(=O)Nc2cccc3c(Cl)c[nH]c23)cc1 [Indisulam, indisulam]?
A: RBM39 protein levels [1]: no effect; co-purification of RBM39-3xFLAG G268V with CUL4-DCAF15 complex [2]: did not co-purify; tumor response ([3]; 25 mg/kg indisulam intravenous once a day for eight days, RBM39 G268V): grew at a rate indistinguishable from that of the control group; also recorded: resistant; Average maximal weight loss from start of therapy to 1 day post final dose ([3]; G268V xenograft, 25 mg/kg once a day for eight days): 8.4%; IC50 ([4]; read-out: Indisulam IC50 (log 10) (converted), U2AF1 WT): 1510 nM; IC50 ([4]; read-out: Indisulam IC50, U2AF1 WT): 1510 nM; recruitment of M265L or E271Q variants of RBM39Δ150 to DCAF15 [5]: failed to recruit
